From paper PMC8196580, “Identification of Kaurane-Type Diterpenes as Inhibitors of Leishmania Pteridine Reductase I” (Molecules, 2021)
Like-named read-outs stand apart in the source and are kept apart here.

Experiments:
L. major [1] = test: ChEMBL dataset of pIC50 values against L. major used for the RF model (Table S1); assay type: cell-based, Leishmania major; further: call rule not given here
L. major [2] = test system: L. major; set-up: method as in ChEMBL; conditions: ref ChEMBL, cited from earlier work
[3] = Active/Inactive class assigned to ChemBL structures for Random forest model construction (Table S1)
[4] = ChemBL structures with pIC50 values used for Random forest model construction (Table S1)
[5] = Active/Inactive class assigned to the ChEMBL pIC50 value for Random forest model construction, ref ChEMBL
[6] = ChemBL structures with pIC50 values used for Random forest model construction, L. major

Row | Structure (SMILES) | Outcome (L. major [1]; [3]) | pIC50 Value (L. major [2]; [4]) | Outcome (L. major [1]; [5]) | pIC50 Value (L. major [2]; [6])
1 | CC(=O)C1=C(CNc2ccc(C(=O)/C=C/c3ccccc3)cc2)N(C)C(=O)NC1c1ccccc1 (stereo not shown) [CHEMBL3786339] | Active | 5.94 | – | –
2 | COc1ccccc1-c1nnc(-c2ccc(C(=O)N/N=C/c3ccc([N+](=O)[O-])cc3)cc2)o1 [CHEMBL4067171] | – | – | Inactive | 4.25
3 | Fc1ccc(-c2nc3c(NCCN4CCOCC4)nccn3c2-c2ccncc2)cc1 [CHEMBL3634368] | – | – | Inactive | 4.78
4 | Cc1cc(COP(N)(=O)N(CCCl)CCCl)ccc1[N+](=O)[O-] (stereo not shown) [CHEMBL1256989] | – | – | Inactive | 4.52
5 | COc1cc(OC)c2c(C)[n+](-c3ccc(Cl)cc3)c(C)cc2c1.F[B-](F)(F)F [CHEMBL481566] | – | – | Inactive | 4.72
6 | CCCCN(CCCC)c1ccc(Nc2c3ccccc3nc3ccccc23)cc1 [CHEMBL312941] | Active | 6.46 | – | –
7 | Cc1csc(C2=NNC(c3cc4ccc(C)cc4nc3Cl)C2)c1 (stereo not shown) [CHEMBL2236137] | Active | 5.59 | – | –
8 | CCC(C)NC(=N)c1ccc(N2CCN(c3nnc(-c4ccc([N+](=O)[O-])o4)s3)CC2)cc1.Cl (stereo not shown) [CHEMBL1783205] | – | – | Inactive | 4.48
9 | CC[C@H](CO)Nc1nc(NCc2cccc(C)c2O)c2ncn(C(C)C)c2n1 [CHEMBL3423079] | – | – | Inactive | 4.70
10 | COc1ccc2c(=O)c(C(=O)O)csc2c1 [CHEMBL1255798] | – | – | Inactive | 4.00
11 | COc1cc(OCC=C(C)C)ccc1C(=O)/C=C/c1ccc([N+](=O)[O-])cc1 [CHEMBL4161584] | Active | 5.48 | – | –
12 | CC1=C2C(=O)c3c(OC(=O)c4ccc(Br)cc4)ccc(OC(=O)c4ccc(Br)cc4)c3CC2(C)CCC1=O (stereo not shown) [CHEMBL255868] | – | – | Inactive | 4.43
13 | O=C(/C=C/c1ccc(-n2ccnc2)cc1)c1ccc(Cl)c(Cl)c1 [CHEMBL570738] | Active | 5.54 | – | –
14 | CCOC(=O)C/C(=N/O)c1nnn[nH]1 [CHEMBL1255762] | – | – | Inactive | 4.00
15 | CC[C@H](CO)Nc1nc(NCc2cccc(OC)c2O)c2ncn(C(C)C)c2n1 [CHEMBL2349189] | – | – | Inactive | 4.01
16 | COc1ccccc1NC(=O)CCC(=O)O [CHEMBL1605594] | Active | 7.81 | – | –

Row | Structure (SMILES) | Outcome (L. major [1]; [3]) | pIC50 Value (L. major [2]; [4]) | Outcome (L. major [1]; [5]) | pIC50 Value (L. major [2]; [6])
17 | COc1cc(/C=N\NC(N)=S)ccc1OCc1cn(CC(=O)c2ccccc2)nn1 [CHEMBL4175538] | – | – | Active | 5.27
18 | C/C=C/C=C/c1nc2ccccc2n2cccc12 [CHEMBL3260206] | Active | 5.33 | – | –
19 | O=C(CCl)N1c2ccccc2Sc2ccc(Cl)cc21 [CHEMBL290253] | – | – | Inactive | 4.98
20 | NP(=O)(OCc1ccc([N+](=O)[O-])cc1F)N(CCCl)CCCl (stereo not shown) [CHEMBL1256991] | Active | 5.33 | – | –
21 | CC(=O)Oc1ccc(-c2c(-c3ccccc3)nc3ccccn23)cc1 [CHEMBL2151860] | – | – | Inactive | 4.80
22 | O=C(c1cccc(Cl)c1)N1CCN(c2nnc(-c3ccc([N+](=O)[O-])s3)s2)CC1 [CHEMBL458778] | – | – | Inactive | 4.30
23 | Cn1c([N+](=O)[O-])cnc1-c1nnc(N2CCN(C(=O)c3ccc(Cl)s3)CC2)s1 [CHEMBL521458] | – | – | Active | 5.03
24 | Cl.O=[N+]([O-])c1ccc(-c2nnc(N3CCN(c4ccc(C5=NCCN5)cc4)CC3)s2)o1 [CHEMBL1783210] | – | – | Inactive | 3.70
25 | O=C(CCl)N1c2ccccc2CCc2ccccc21 [CHEMBL1314125] | – | – | Inactive | 4.36
26 | Cc1cccc2cc(/C=C/C(=O)c3ccc(I)s3)c(Cl)nc12 [CHEMBL1940871] | Active | 5.82 | – | –
27 | Cc1ccc2cc(C3CC(c4sccc4C)=NN3)c(Cl)nc2c1 (stereo not shown) [CHEMBL2236136] | Active | 5.65 | – | –
28 | O=C(/C=C/c1ccc(-n2ccnc2)cc1)c1ccccc1Br [CHEMBL569130] | Active | 5.61 | – | –
29 | COc1cc(/C=N/NC(N)=S)ccc1OCc1cn(CC(=O)c2ccc(C)cc2)nn1 [CHEMBL4163267] | Active | 5.30 | – | –
30 | O=[N+]([O-])c1ccc2ncnc(Nc3ccc(Br)cc3)c2c1 [CHEMBL3760107] | – | – | Inactive | 4.21
31 | O=[N+]([O-])c1ccc2nc(-c3ccccc3[N+](=O)[O-])[nH]c2c1 [CHEMBL1481977] | Active | 5.59 | – | –
32 | O=[N+]([O-])c1ccc(-c2nnc(NCc3cn(Cc4ccc(Cl)cc4)nn3)s2)o1 [CHEMBL1951527] | – | – | Inactive | 4.05
